This passage reports Ki results from US8580811B2 (Ligand Pharmaceuticals Incorporated, priority 2005, dated 2013).

In this test the target is T1, human AR (Homo sapiens, UniProt P10275).
T1 construct: expressed in transfected cells; host or cells: COS-1 cells
T1 sequence (P10275 1-920): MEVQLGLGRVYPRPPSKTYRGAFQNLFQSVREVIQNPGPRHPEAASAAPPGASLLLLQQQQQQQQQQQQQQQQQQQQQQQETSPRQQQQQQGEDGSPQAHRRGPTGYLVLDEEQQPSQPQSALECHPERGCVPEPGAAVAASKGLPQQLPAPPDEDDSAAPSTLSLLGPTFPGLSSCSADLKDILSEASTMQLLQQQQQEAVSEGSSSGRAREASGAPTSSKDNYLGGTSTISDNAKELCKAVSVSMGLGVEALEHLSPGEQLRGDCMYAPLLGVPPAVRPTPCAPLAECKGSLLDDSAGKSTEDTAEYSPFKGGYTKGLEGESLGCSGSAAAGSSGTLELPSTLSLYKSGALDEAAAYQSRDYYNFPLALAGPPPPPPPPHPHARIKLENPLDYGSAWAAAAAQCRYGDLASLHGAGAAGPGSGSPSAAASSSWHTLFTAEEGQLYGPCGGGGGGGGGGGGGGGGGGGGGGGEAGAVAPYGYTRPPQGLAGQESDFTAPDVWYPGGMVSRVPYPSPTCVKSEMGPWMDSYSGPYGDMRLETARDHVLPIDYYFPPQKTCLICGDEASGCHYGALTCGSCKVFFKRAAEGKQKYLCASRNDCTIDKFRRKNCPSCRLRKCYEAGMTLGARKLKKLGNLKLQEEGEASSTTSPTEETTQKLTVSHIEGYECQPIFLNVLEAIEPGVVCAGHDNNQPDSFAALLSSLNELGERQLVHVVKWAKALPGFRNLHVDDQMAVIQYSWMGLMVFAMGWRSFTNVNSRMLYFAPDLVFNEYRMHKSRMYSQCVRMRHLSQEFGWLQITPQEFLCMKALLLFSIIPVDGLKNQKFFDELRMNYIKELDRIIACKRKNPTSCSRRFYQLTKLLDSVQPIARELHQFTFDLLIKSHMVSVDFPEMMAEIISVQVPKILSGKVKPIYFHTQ
Nature of the test: IR Binding Assay: whole cell competitive binding of test compounds against 3H-DHT in COS-1 cells transfected with pRShAR. The method in brief:
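COS-1 cells transfected with pRShAR plus β-Gal reporter, serum-starved 24 h, then exposed to 1 nM ³H-DHT with compounds at 10^−10 to 10^−6 M for 3 h at 37 °C. Bound ³H-DHT counted in lysates, normalized to β-Gal. IC50 from log-logit plot; Ki via Cheng-Prusoff using Kd from Scatchard saturation analysis.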

Where [1] appears, read: competition with 1 nM 3H-DHT, transfected COS-1 cells, 3 h at 37° C., Cheng-Prusoff from IC50, read-out: Ki.

Structures are written as SMILES. Like-named read-outs stand apart in the source and are kept apart here.

The term Ki denotes the equilibrium dissociation constant of an inhibitor or competing ligand from its target. In turn, `Cc1c(CO)n(CC(F)(F)F)c2ccc3[nH]c(=O)cc(Cl)c3c12` [Compound 230, 9-Chloro-2-hydroxymethyl-1-methyl-3-(2,2,2-trifluoro-ethyl)-3,6-dihydro-pyrrolo[3,2-f]-quinolin-7-one] returned an inhibition constant Ki above 10 nM. On the same count and under the same terms, under `Cc1c(C(F)(F)F)n(CC(F)(F)F)c2ccc3[nH]c(=O)cc(C(F)(F)F)c3c12` [Compound 234, 1-Methyl-3-(2,2,2-trifluoro-ethyl)-2,9-bis-trifluoromethyl-3,6-dihydro-pyrrolo[3,2-f]-quinolin-7-one] stands below 5 nM; under `Cc1c(CO)n(CC(F)(F)F)c2ccc3[nH]c(=O)cc(C(F)(F)F)c3c12` [Compound 235, 2-Hydroxymethyl-1-methyl-3-(2,2,2-trifluoro-ethyl)-9-trifluoromethyl-3,6-dihydro-pyrrolo[3,2-f]-quinolin-7-one], above 10 nM; under `C=CCn1c(C)c(C)c2c3c(C(F)(F)F)cc(=O)[nH]c3ccc21` [Compound 236, 3-Allyl-1,2-dimethyl-9-trifluoromethyl-3,6-dihydro-pyrrolo[3,2-f]quinolin-7-one], below 5 nM.

In turn, `C=C(C)Cn1c(C)c(C)c2c3c(C(F)(F)F)cc(=O)[nH]c3ccc21` [Compound 237, 1,2-Dimethyl-3-(2-methyl-allyl)-9-trifluoromethyl-3,6-dihydro-pyrrolo[3,2-f]quinolin-7-one] displayed a Ki below 5 nM. Still for that read-out and setting: under `CC(C)=Cn1c(C)c(C)c2c3c(C(F)(F)F)cc(=O)[nH]c3ccc21` [Compound 238, 1,2-Dimethyl-3-(2-methylprop-1-enyl)-9-trifluoromethyl-3,6-dihydro-pyrrolo[3,2-f]-quinolin-7-one] stands below 5 nM; under `Cc1c(C)n(CCC(C)(C)O)c2ccc3[nH]c(=O)cc(C(F)(F)F)c3c12` [Compound 239, 3-(3-Hydroxy-3-methyl-butyl)-1,2-dimethyl-9-trifluoromethyl-3,6-dihydro-pyrrolo[3,2-f]-quinolin-7-one], above 10 nM. `Cc1c(C)n(CCO)c2ccc3[nH]c(=O)cc(C(F)(F)F)c3c12` [Compound 240, 1,2-Dimethyl-3-(2-hydroxyethyl)-9-trifluoromethyl-3,6-dihydro-pyrrolo[3,2-f]quinolin-7-one]: the Ki is above 10 nM. Same read-out and setting: under `CC(=O)OCCn1c(C)c(C)c2c3c(C(F)(F)F)cc(=O)[nH]c3ccc21` [Compound 241, 3-(2-Acetoxyethyl)-1,2-Dimethyl-9-trifluoromethyl-3,6-dihydro-pyrrolo[3,2-f]quinolin-7-one] stands 5 to 10 nM; under `C#CCn1c(C)c(C)c2c3c(C(F)(F)F)cc(=O)[nH]c3ccc21` [Compound 242, 1,2-Dimethyl-3-(prop-2-ynyl)-9-trifluoromethyl-3,6-dihydro-pyrrolo[3,2-f]quinolin-7-one], below 5 nM; under `Cc1c(C)n(C[C@@H](O)C(F)(F)F)c2ccc3[nH]c(=O)cc(C(F)(F)F)c3c12` [Compound 244, (+)-1,2-Dimethyl-3-(3,3,3-trifluoro-2-hydroxy-propyl)-9-trifluoromethyl-3,6-dihydro-pyrrolo[3,2-f]-quinolin-7-one], above 10 nM. Take `Cc1c(C)n(C[C@H](O)C(F)(F)F)c2ccc3[nH]c(=O)cc(C(F)(F)F)c3c12` [Compound 245, (−)-1,2-Dimethyl-3-(3,3,3-trifluoro-2-hydroxy-propyl)-9-trifluoromethyl-3,6-dihydro-pyrrolo[3,2-f]-quinolin-7-one]: the Ki is above 10 nM. `Cc1c(C)n(CCCF)c2ccc3[nH]c(=O)cc(C(F)(F)F)c3c12` [Compound 248, 1,2-Dimethyl-3-(3-fluoropropyl)-9-trifluoromethyl-3,6-dihydro-pyrrolo[3,2-f]quinolin-7-one] had an inhibition constant Ki below 5 nM.

For the compound `Cc1c(C)n(CCCO)c2ccc3[nH]c(=O)cc(C(F)(F)F)c3c12` [Compound 249, 1,2-Dimethyl-3-(3-hydroxypropyl)-9-trifluoromethyl-3,6-dihydro-pyrrolo[3,2-f]quinolin-7-one], the Ki is below 5 nM. On to `CC(=O)OCCCn1c(C)c(C)c2c3c(C(F)(F)F)cc(=O)[nH]c3ccc21` [Compound 250, 3-(3-Acetoxypropyl)-1,2-dimethyl-9-trifluoromethyl-3,6-dihydro-pyrrolo[3,2-f]quinolin-7-one], for which the Ki was below 5 nM.

In the case of `Cc1c(-c2cccc(F)c2)n(CC(F)(F)F)c2ccc3[nH]c(=O)cc(Cl)c3c12` [Compound 251, 9-Chloro-2-(3-fluorophenyl)-1-methyl-3-(2,2,2-trifluoroethyl)-3,6-dihydro-pyrrolo[3,2-f]-quinolin-7-one], the Ki was below 5 nM. The same measure, in the same setting: under `Cc1c(-c2nccs2)n(CC(F)(F)F)c2ccc3[nH]c(=O)cc(Cl)c3c12` [Compound 252, 9-Chloro-1-methyl-2-(1,3-thiazol-2-yl)-3-(2,2,2-trifluoroethyl)-3,6-dihydro-pyrrolo[3,2-f]-quinolin-7-one] stands below 5 nM. Still for that read-out and setting: for `Cc1c(-c2cccnc2)n(CC(F)(F)F)c2ccc3[nH]c(=O)cc(Cl)c3c12` [Compound 253, 9-Chloro-1-methyl-2-(3-pyridyl)-3-(2,2,2-trifluoroethyl)-3,6-dihydro-pyrrolo[3,2-f]-quinolin-7-one] the value was above 10 nM. Consider `Cc1c(-c2ccncc2)n(CC(F)(F)F)c2ccc3[nH]c(=O)cc(Cl)c3c12` [Compound 254, 9-Chloro-1-methyl-2-(4-pyridyl)-3-(2,2,2-trifluoroethyl)-3,6-dihydro-pyrrolo[3,2-f]-quinolin-7-one], for which, under setting [1], the Ki was above 10 nM.

The compound `Cc1c(C(F)(F)C(F)(F)F)n(CC(F)(F)F)c2ccc3[nH]c(=O)cc(Cl)c3c12` [Compound 255, 9-Chloro-1-methyl-2-(pentafluoroethyl)-3-(2,2,2-trifluoroethyl)-3,6-dihydro-pyrrolo[3,2-f]-quinolin-7-one] returned a Ki below 5 nM. As to `Cc1ccc(-c2c(C)c3c4c(Cl)cc(=O)[nH]c4ccc3n2CC(F)(F)F)o1` [Compound 256, 9-Chloro-1-methyl-2-(5-methyl-2-furyl)-3-(2,2,2-trifluoroethyl)-3,6-dihydro-pyrrolo[3,2-f]-quinolin-7-one], the Ki under setting [1] was below 5 nM. `Cc1c(-c2ncco2)n(CC(F)(F)F)c2ccc3[nH]c(=O)cc(Cl)c3c12` [Compound 257, 9-Chloro-1-methyl-2-(2-oxazolyl)-3-(2,2,2-trifluoroethyl)-3,6-dihydro-pyrrolo[3,2-f]-quinolin-7-one]: the inhibition constant Ki was below 5 nM. On the same count and under the same terms, under `Cc1ccc(-c2c(C)c3c4c(Cl)cc(=O)[nH]c4ccc3n2CC(F)(F)F)s1` [Compound 258, 9-Chloro-1-methyl-2-(5-methyl-2-thiophenyl)-3-(2,2,2-trifluoroethyl)-3,6-dihydro-pyrrolo[3,2-f]quinolin-7-one] stands below 5 nM. The same measure, in the same setting: for `Cc1c(-c2cccs2)n(CC(F)(F)C(F)(F)F)c2ccc3[nH]c(=O)cc(Cl)c3c12` [Compound 259, 9-Chloro-1-methyl-3-(2,2,3,3,3-pentafluoropropyl)-2-thiophen-2-yl-3,6-dihydro-pyrrolo[3,2-f]quinolin-7-one] the value was above 10 nM; for `Cc1c(C(F)(F)F)n(CC(F)(F)C(F)(F)F)c2ccc3[nH]c(=O)cc(Cl)c3c12` [Compound 260, 9-Chloro-1-methyl-3-(2,2,3,3,3-pentafluoropropyl)-2-(trifluoromethyl)-3,6-dihydro-pyrrolo[3,2-f]quinolin-7-one], above 10 nM; for `Cc1c(-c2ccco2)n(CC(F)(F)C(F)(F)F)c2ccc3[nH]c(=O)cc(Cl)c3c12` [Compound 261, 9-Chloro-1-methyl-2-(2-furyl)-3-(2,2,3,3,3-pentafluoropropyl)-3,6-dihydro-pyrrolo[3,2-f]quinolin-7-one], below 5 nM. On the same count and under the same terms, for `Cc1c(-c2nccs2)n(CC(F)(F)C(F)(F)F)c2ccc3[nH]c(=O)cc(Cl)c3c12` [Compound 262, 9-Chloro-1-methyl-3-(2,2,3,3,3-pentafluoropropyl)-2-(1,3-thiazol-2-yl)-3,6-dihydro-pyrrolo[3,2-f]quinolin-7-one] the value was 5 to 10 nM; for `Cc1c(-c2ccncc2)n(CC(F)(F)C(F)(F)F)c2ccc3[nH]c(=O)cc(Cl)c3c12` [Compound 263, 9-Chloro-1-methyl-3-(2,2,3,3,3-pentafluoropropyl)-2-(4-pyridyl)-3,6-dihydro-pyrrolo[3,2-f]quinolin-7-one], below 5 nM.

`Cc1c(-c2cccnc2)n(CC(F)(F)C(F)(F)F)c2ccc3[nH]c(=O)cc(Cl)c3c12` [Compound 264, 9-Chloro-1-methyl-3-(2,2,3,3,3-pentafluoropropyl)-2-(3-pyridyl)-3,6-dihydro-pyrrolo[3,2-f]quinolin-7-one] had a Ki below 5 nM.
